For assay [1], the target named is T1, NEMO/IKKβ complex (MBP-IKKβ (701–745) / GST-NEMO (1–196)) (Homo sapiens, UniProt Q9Y6K9).
T1 construct: made in house; host or cells: E. coli BL21(DE3)
Nature of the assay: SPR competition assay of NEMO/IKKβ binding. As to the method:
(§1) MBP-IKKβ was immobilized on the surface of the CM5 chip using the amine-coupling approach at a flow rate of 10 μL/min in 10 mM sodium acetate buffer (pH 5.0). The sensor surface was activated with a 7 min injection of a mixture comprising 50 mM N-hydroxysuccinimide (NHS) and 200 mM 1-ethyl-3-(3- dimethylaminopropyl) carbodiimide (EDC). Then, 33 μg/mL of IKKβ was injected to reach the target level of 500 RU and the surface was blocked with 1 M ethanolamine, pH 8.5. A series of concentrations of NEMO or SHK were injected into the flow system and analyzed for 90 or 120 s, followed by dissociation for 90 or 600 s. All binding analyses was performed in phosphate-buffered saline (PBS, pH 7.4) with 0.05% (v/v) Tween-20 at 25 °C. Prior to analysis, double reference subtractions were made to eliminate bulk refractive index changes, injection noise, and data drift. The binding affinity was determined by fitting to a Langmuir 1:1 binding model in the Biacore Evaluation software (GE Healthcare).
According to the instructions from GE, an anti-GST antibody was immobilized onto the CM5 chip surface. The sensor surface was activated with NHS and EDC, after which 15 μg/mL of anti-GST antibody was injected for 420 s and the surface was blocked with 1 M ethanolamine, pH 8.5. […] For each analyte, 50 μg/mL of GST-G was captured for 60 s and 10 mM glycine-HCl (pH 2.1) was used to regenerate the surface. MBP-B was analyzed with 120 s injection and 120 s dissociation. A series of SHK concentrations was analyzed with 90 s injection and 90 s dissociation.
For the competition assay, we tried two methods with MBP-IKKβ and GST-NEMO immobilized separately. Mixtures including series concentrations of SHK and 1 μM GST-NEMO were tested on MBP-IKKβ-immobilized surface; while other mixtures including series concentrations of SHK and 0.5 μM MBP-IKKβ were tested on GST-NEMO-captured surface. […] By recording the binding responses at 120 s, the inhibition effects of SHK were calculated to determine the IC50.

The next assay concerns the target T2, MBP-IKKβ (701–745) (Homo sapiens, UniProt O14920).
T2 construct: made in house; host or cells: E. coli BL21(DE3)
T2 sequence (O14920 701-745): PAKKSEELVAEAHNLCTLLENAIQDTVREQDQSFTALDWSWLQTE
Nature of the assay: SPR affinity assay on immobilized MBP-IKKβ. Format: binding. The method, then: as §1, with “The” for “MBP-IKKβ was immobilized on the surface of the CM5 chip using the amine-coupling approach at a flow rate of 10 μL/min in 10 mM sodium acetate buffer (pH 5.0). The”

For another assay, the target named is T3, NEMO/IKKβ complex (Homo sapiens, UniProt O14920+Q9Y6K9).
T3 construct: expressed in transfected cells; host or cells: HEK293T
Nature of the assay: Co-immunoprecipitation of NEMO/IKKβ. The settings on record: Co-IP. The method, then:
The pre-cleared cell lysates were incubated with an anti-HA antibody on a rotating platform at 4 °C for 2 h, and then incubated for another 6 h with protein A/G-sepharose beads. The sepharose beads were washed three times with binding buffer, mixed with gel loading buffer and boiled for 5 min. The samples were centrifuged and the supernatants were used for western blot analysis. A specific antibody against the Flag-tag was applied for the detection of proteins.
The IKKβ and NEMO expression vectors were constructed by subcloning the full-length cDNA to pENTER-4T1 expression vector (Flag- or HA-tagged) developed by ViGene Biosciences, as described previously.[25] The 293T cells (1 × 10^6) were plated into 60 mm dishes for 1 day, and then transfected with the relevant plasmids encoding HA-IKKβ and Flag-NEMO using Lipofectamine 2000 transfection reagent (Invitrogen). After transfection, the cells were cultured for another 24 h. Subsequently, the transfected cells were trypsinized and seeded into 60 mm dishes, followed by culturing with fresh medium containing the indicated doses of SHK for 48 h, and then collected for the Co-IP assay.

The test system of another assay is LoVo cells. Nature of the assay: Real-time cell growth (xCELLigence) in IKKβ or NEMO depleted or mutant LoVo cells. Particulars: SHK 1 μM. Format: cell-based, human.

The results in this text go back to article PMC8904520, “Characterization of a small-molecule inhibitor targeting NEMO/IKKβ to suppress colorectal cancer growth” (Signal Transduction and Targeted Therapy, 2022).

Several values for one entry are separate records, joined by “and”; a condition that tells them apart may be missing. Identical values can stand only once. Like-named read-outs stand apart in the source and are kept apart here.

T1 sequence (Q9Y6K9 1-196, one chain of several): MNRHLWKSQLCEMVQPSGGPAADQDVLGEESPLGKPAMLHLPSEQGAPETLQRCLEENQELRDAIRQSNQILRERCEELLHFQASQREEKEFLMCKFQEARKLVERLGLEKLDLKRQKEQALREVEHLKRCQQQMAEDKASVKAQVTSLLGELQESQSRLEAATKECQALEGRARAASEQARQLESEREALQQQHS

Turning to `CC(C)=CC[C@@H](O)C1=CC(=O)c2c(O)ccc(O)c2C1=O` [SHK, Shikonin], the IC50 in assay [1] (IC50 for impairing binding of GST-NEMO (1–196) to MBP-IKKβ (701–745), MBP-IKKβ immobilized, SHK pre-incubated with 1 μM GST-NEMO for 30 min) is 176 ± 26.4 nM; in assay [1] (IC50 for inhibiting binding of MBP-IKKβ (701–745) to GST-NEMO (1–196), GST-NEMO immobilized, SHK pre-incubated with 0.5 μM MBP-IKKβ for 30 min) it was 171 ± 35.6 nM; in assay [1] (summary value as quoted in abstract, introduction, discussion, read-out: IC50 for destabilizing / inhibiting NEMO/IKKβ complex formation), 174 nM and ~170 nM. The Kd on MBP-IKKβ (701–745) (KD for MBP-IKKβ (701–745), SPR) is 8190 ± 1920 nM; at MBP-IKKβ (701–745) (approximate summary value in discussion (SPR and MST), read-out: KD for either IKKβ or NEMO alone), roughly 10000 nM. At NEMO/IKKβ complex (HEK293T cells), the “association of full-length HA-IKKβ and Flag-NEMO” value was “greatly reduced”. Further, the “ability to destabilize the NEMO/IKKβ complex” value at NEMO/IKKβ complex (pre-formed complex) is given as “effectively reversed their association”. For the same compound, the “inhibitory effect on growth of single point mutation cells compared with wild-type” value in the assay with LoVo cells (LoVo cells rescued with L737A, M94A, Q98A or R101A) is recorded as “significantly weakened”. The “inhibitory effect on growth of IKKβ or NEMO depletion cells” value in the assay with LoVo cells (LoVo cells with shRNA) is on record as “significantly weakened”.

For orientation: Kd means the constant that tells how readily two partners part at equilibrium.
